# According to patent US8338517B2, “Aqueous compositions of fluorinated surfactants and methods of using the same” (3M Innovative Properties Company, priority 2007, dated 2012):
# Test: Static surface tension of aqueous surfactant solutions (Kruss K-12 tensiometer, Du Nouy ring method)
# Format: physicochemical
# Settings: 1000 ppm in water, 20° C.
# Method: The solution from was diluted with water to a concentration of 1000 ppm.
# The procedure of Preparation 1 was followed except using 16.3 grams of C3F7OCHFCF2COOCH3 instead of the CF3O(CF2)3OCHFCF2COOCH3 to prepare a solution of C3F7OCHFCF2COOK. This solution was diluted with water to a concentration of 1000 ppm.
# Static surface tensions were measured on the solutions of Preparations 1 to 6 using a Kruss K-12 tensiometer (obtained from Kruss GmbH, Hamburg, Germany) using the Du Nouy ring method at 20° C.
smiles,measurement,value
O=C([O-])C(F)(F)C(F)(F)C(F)(F)C(F)(F)C(F)(F)F.[K+] [potassium perfluorohexanoate],Surface Tension,58.5 mN/m
